Source: PubChem BioAssay (NCI)
Where “and” joins values, the source holds several entries; their conditions need not be identical. Equal values may be shown once.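 Exposure lasted 48 hours, with cells grown in 96-well plates and compounds tested at five concentrations. Here, GI50 denotes the concentration required for 50% inhibition of growth. TGI denotes the concentration required for complete inhibition of growth.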

How the values were obtained:
Experiment in all cases: NCI-60 cell line screen, 48 h
[1] = system: HCT-15 colon
[2] = system: HS 578T breast
[3] = system: HL-60(TB) leukemia
[4] = system: BT-549 breast
[5] = system: CAKI-1 renal
[6] = system: SNB-19 CNS
[7] = system: MDA-MB-231 breast
[8] = system: U251 CNS
[9] = system: MDA-MB-435
[10] = system: DU-145 prostate
[11] = system: KM12 colon
[12] = system: RPMI-8226 leukemia
[13] = system: MCF7 breast
[14] = system: SN12C renal
[15] = system: OVCAR-4 ovarian
[16] = system: EKVX NSCLC
[17] = system: SF-295 CNS
[18] = system: 786-0 renal
[19] = system: HOP-92 NSCLC
[20] = system: ACHN renal
[21] = system: TK-10 renal
[22] = system: COLO 205 colon
[23] = system: RXF 393 renal
[24] = system: PC-3 prostate
[25] = system: NCI-H23 lung
[26] = system: NCI-H522 lung
[27] = system: SR leukemia
[28] = system: HOP-62 NSCLC
[29] = system: HCC-2998 colon
[30] = system: SK-MEL-2 melanoma
[31] = system: NCI-H226 lung
[32] = system: SK-OV-3 ovarian
[33] = system: HCT-116 colon
[34] = system: CCRF-CEM leukemia
[35] = system: OVCAR-8 ovarian
[36] = system: UACC-257 melanoma
[37] = system: SK-MEL-28 melanoma
[38] = system: A549 NSCLC
[39] = system: MALME-3M melanoma
[40] = system: MDA-MB-468 breast
[41] = system: SF-268 CNS
[42] = system: SF-539 CNS
[43] = system: LOX IMVI melanoma
[44] = system: NCI-H460 lung
[45] = system: OVCAR-5 ovarian
[46] = system: T-47D breast
[47] = system: IGROV1 ovarian
[48] = system: OVCAR-3 ovarian
[49] = system: UO-31 renal
[50] = system: K-562 leukemia
[51] = system: HT29 colon
[52] = system: UACC-62 melanoma
[53] = system: MOLT-4 leukemia
[54] = system: SNB-75 CNS
[55] = system: NCI/ADR-RES ovarian

CC1=C2C(=C[C@@](C)(CO)[C@@H]2O)/C(=N\N)[C@](C)(O)C12CC2
GI50 [1]: 1.54 µM | TGI [1]: > 100 µM | GI50 [2]: 2.88 µM | TGI [2]: 9.44 µM | GI50 [3]: 1.44 µM | TGI [3]: 8.87 µM | GI50 [4]: 1.69 µM | TGI [4]: 4.43 µM | GI50 [5]: 2.44 µM | TGI [5]: > 100 µM | GI50 [6]: 2.51 µM | TGI [6]: 8.67 µM | GI50 [7]: 2.25 µM | TGI [7]: 6.52 µM | GI50 [8]: 0.416 µM | TGI [8]: > 100 µM | GI50 [9]: 2.23 µM | TGI [9]: 5.58 µM | GI50 [10]: 0.812 µM | TGI [10]: 30.5 µM | GI50 [11]: 2.98 µM | TGI [11]: > 100 µM | GI50 [12]: > 100 µM | TGI [12]: > 100 µM | GI50 [13]: 0.405 µM | TGI [13]: > 100 µM | GI50 [14]: 2.33 µM | TGI [14]: 6.66 µM | GI50 [15]: 2.44 µM | TGI [15]: 7.16 µM | GI50 [16]: 2.17 µM | TGI [16]: 5.52 µM | GI50 [17]: 1.74 µM | TGI [17]: > 100 µM | GI50 [18]: 2.97 µM | TGI [18]: 9.08 µM | GI50 [19]: 2.54 µM | TGI [19]: 6.75 µM | GI50 [20]: 0.86 µM | TGI [20]: 5.18 µM | GI50 [21]: 3.1 µM | TGI [21]: 9.25 µM | GI50 [22]: 1.65 µM | TGI [22]: 3.65 µM | GI50 [23]: 1.51 µM | TGI [23]: 3.26 µM | GI50 [24]: 2.55 µM | TGI [24]: 15.3 µM | GI50 [25]: 1.08 µM | TGI [25]: 2.9 µM | GI50 [26]: 1.19 µM | TGI [26]: 3.64 µM | GI50 [27]: 2.12 µM | TGI [27]: > 100 µM | GI50 [28]: 2.23 µM | TGI [28]: 5.32 µM | GI50 [29]: 1.79 µM | TGI [29]: 3.77 µM | GI50 [30]: 1.77 µM | TGI [30]: 3.33 µM | GI50 [31]: 2.11 µM | TGI [31]: 7.44 µM | GI50 [32]: 2.91 µM | TGI [32]: 7.87 µM | GI50 [33]: 1.33 µM | TGI [33]: > 100 µM | GI50 [34]: 2.93 µM | TGI [34]: > 100 µM | GI50 [35]: 1.86 µM | TGI [35]: 5.12 µM | GI50 [36]: 2.25 µM | TGI [36]: 5.19 µM | GI50 [37]: 2.04 µM | TGI [37]: 4.11 µM | GI50 [38]: 2.39 µM | TGI [38]: 22.8 µM | GI50 [39]: 1.7 µM | TGI [39]: 3.25 µM | GI50 [40]: 0.977 µM | TGI [40]: 2.77 µM | GI50 [41]: 2.66 µM | TGI [41]: 21.8 µM | GI50 [42]: 1.85 µM | TGI [42]: 3.83 µM | GI50 [43]: 1.62 µM | TGI [43]: 4.99 µM | GI50 [44]: 0.42 µM | TGI [44]: 6.63 µM | GI50 [45]: 0.518 µM | TGI [45]: 33.8 µM | GI50 [46]: 2.2 µM | TGI [46]: 6.71 µM | GI50 [47]: 2.39 µM | TGI [47]: 7.62 µM | GI50 [48]: 2.63 µM | TGI [48]: 7.05 µM | GI50 [49]: 1.65 µM | TGI [49]: 4.66 µM | GI50 [50]: 2.02 µM | TGI [50]: > 100 µM | GI50 [51]: 1.94 µM | TGI [51]: 8.75 µM | GI50 [52]: 1.74 µM | TGI [52]: 3.23 µM | GI50 [53]: 2.4 µM | TGI [53]: > 100 µM | GI50 [54]: 1.36 µM | TGI [54]: 4.82 µM

O=C(COc1ccc(-c2nc3cc(Cl)c(Cl)cc3[nH]2)cc1)N=Nc1c(O)[nH]c2ccccc12
GI50 [40]: 2.6 µM | TGI [40]: 6.23 µM

NS(=O)(=O)c1ccc(-n2cc(-c3cccc(NC(=O)c4ccc(Cl)c(C(F)(F)F)c4)c3)nn2)cc1
GI50 [1]: 7.8 µM | TGI [1]: 68.5 µM | GI50 [27]: 3.9 µM | TGI [27]: > 100 µM | GI50 [55]: 80.7 µM | TGI [55]: > 100 µM | GI50 [53]: 3.1 µM | TGI [53]: > 100 µM

CC1(C)CC(=O)c2c(ccc(C(=O)C[C@@H](N)CO)c2N)O1
GI50 [40]: 0.561 µM | TGI [40]: 6.88 µM

O=C(c1ccccc1O)c1[nH]c(Cl)c(Cl)c1-n1c(C(=O)c2ccccc2O)cc(Cl)c1Cl
GI50 [40]: 0.436 µM and 0.339 µM | TGI [40]: 6.53 µM and 10.4 µM

FC(F)(F)c1[nH]ncc1-c1nc2ccc3[nH]ncc3c2c2c1CCCC2
GI50 [40]: 1.86 µM | TGI [40]: 4.67 µM

COc1ccc(C(=O)OC2C(OC3C(O)COC(O[C@H]4C[C@H]5[C@@H]6CC=C7C[C@@H](O)CC[C@]7(C)[C@H]6CC[C@]5(C)[C@H]4[C@H](C)C(=O)CCC(C)C)C3OC(C)=O)OCC(O)C2O)cc1 (stereo partly specified)
GI50 [40]: 0.00666 µM | TGI [40]: 1.53 µM

Cn1c2ccccc2c2nnc(NNCc3ccccn3)nc21
GI50 [40]: 0.268 µM | TGI [40]: 1.16 µM

O=C(Nc1cccc(-n2cc(-c3ccncc3)c(-c3ccc(O)c(Cl)c3)n2)c1)c1ccc(Cl)c(Cl)c1
GI50 [40]: 16.2 µM | TGI [40]: > 100 µM

COc1ccc(/C(=N/O)c2cc(OC)c(OC)c(OC)c2)c(OC)c1N
GI50 [40]: 3.54 µM | TGI [40]: > 100 µM

Cc1cc(O)cc(C)c1/C=C/c1cncc(C(=O)OC(C)(C)C)c1
GI50 [40]: 8.41 µM | TGI [40]: > 25 µM

CNCCCn1c2c(c3ccc(F)cc3c1=O)C(=O)c1cc(OC)cnc1-2
GI50 [40]: 0.22 µM | TGI [40]: 0.66 µM
